Experimental data published in patent US6605742B2, “Cyclo azaphospha hydrocarbons” (priority 2001, dated 2003).

Key:
Assay type in all cases: biochemical
MMP-1 = biological target: T1, MMP-1 (Homo sapiens, UniProt P03956); experiment: Test for MMP inhibitory effects: cleavage of fluorogenic substrate M-2055 by MMP-1
T1 construct: purchased Chemicon International, CA, USA
T1 sequence (P03956 100-469): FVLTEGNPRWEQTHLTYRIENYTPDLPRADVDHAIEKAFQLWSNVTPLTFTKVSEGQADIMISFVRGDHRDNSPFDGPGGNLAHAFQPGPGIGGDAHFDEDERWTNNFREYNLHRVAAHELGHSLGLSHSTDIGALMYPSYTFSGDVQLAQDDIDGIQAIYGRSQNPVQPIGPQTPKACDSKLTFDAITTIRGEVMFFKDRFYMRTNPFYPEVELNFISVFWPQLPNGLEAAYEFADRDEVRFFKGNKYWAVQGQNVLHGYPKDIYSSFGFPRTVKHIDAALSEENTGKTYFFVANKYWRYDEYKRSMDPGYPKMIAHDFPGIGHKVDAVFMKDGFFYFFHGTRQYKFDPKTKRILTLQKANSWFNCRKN
Procedure: (§1) The assay measures the effect of the tested compounds on the proteolytic activity of metalloproteases by assessing the cleavage of a fluorogenic substrate. In the uncleaved substrate the fluoresensce is quenched intramolecularly, however, cleavage of the substrate relieves the quenching yielding fluorescent peptides [Bickett, Anal. Biochem, 212, 58-64, 1993; Knight, FEBS Lett., 296, 263-266, 1992].
(§2) The compounds were tested for inhibitory effects towards MMP-1 and MMP-9 (Chemicon International, CA, USA) and MMP-2 (Biogenesis Ltd, UK). Substrate for MMP-1 was M-2055 (Dnp-Pro-β-cyclohexyl-Ala-Gly-Cys(Me)-His-Ala-Lys(N-Me-Abz)-NH2), which is a synthetic peptide-like structure, obtained from Bachem AG, Schwitzerland. Substrate for MMP-2 and MMP-9 was fluorescein-conjugated gelatin obtained from Molecular Probes Inc., OR, USA.
(§3) The enzymes were activated with phenyl mercuric acetate, and incubated with the appropriate substrate and different levels of the compound to be tested. The exitation/emission wavelengths were 350/450 and 485/530 for M-2055 and gelatine, respectively.
(§4) The molar concentration of the test compounds resulting in 50% inhibition of the enzymatic activity (IC50) was calculated from the dose-response curve. For convenience, the results are reported as pIC50, i.e. −log(IC50).

MMP-2 = biological target: T2, MMP-2 (Homo sapiens, UniProt P08253); experiment: Test for MMP inhibitory effects: cleavage of fluorescein-conjugated gelatin by MMP-2
T2 construct: purchased Biogenesis Ltd, UK
T2 sequence (P08253 110-660): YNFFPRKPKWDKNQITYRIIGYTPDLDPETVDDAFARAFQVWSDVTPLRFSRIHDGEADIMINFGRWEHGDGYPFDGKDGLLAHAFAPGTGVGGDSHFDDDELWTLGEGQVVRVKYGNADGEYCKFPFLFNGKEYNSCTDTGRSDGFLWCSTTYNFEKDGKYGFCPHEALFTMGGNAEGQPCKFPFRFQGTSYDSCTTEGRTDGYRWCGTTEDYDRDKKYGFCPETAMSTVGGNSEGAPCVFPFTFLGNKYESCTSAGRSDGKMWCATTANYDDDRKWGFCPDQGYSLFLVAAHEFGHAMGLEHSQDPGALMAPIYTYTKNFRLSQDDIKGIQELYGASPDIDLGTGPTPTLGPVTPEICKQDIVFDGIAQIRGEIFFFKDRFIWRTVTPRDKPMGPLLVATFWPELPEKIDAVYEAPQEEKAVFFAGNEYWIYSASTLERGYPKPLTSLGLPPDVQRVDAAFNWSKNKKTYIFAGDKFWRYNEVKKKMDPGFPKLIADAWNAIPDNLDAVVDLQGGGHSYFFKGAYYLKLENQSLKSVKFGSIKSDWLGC
Procedure: as §1, §2, §3, §4

MMP-9 = biological target: T3, MMP-9 (Homo sapiens, UniProt P14780); experiment: Test for MMP inhibitory effects: cleavage of fluorescein-conjugated gelatin by MMP-9
T3 construct: purchased Chemicon International, CA, USA
Procedure: as §1, §2, §3, §4

[1] = pIC50 = -log(IC50), molar, enzyme activated with phenyl mercuric acetate, substrate fluorescein-conjugated gelatin, excitation/emission 485/530

T3 sequence (P14780 107-707 limits assumed, species assumed): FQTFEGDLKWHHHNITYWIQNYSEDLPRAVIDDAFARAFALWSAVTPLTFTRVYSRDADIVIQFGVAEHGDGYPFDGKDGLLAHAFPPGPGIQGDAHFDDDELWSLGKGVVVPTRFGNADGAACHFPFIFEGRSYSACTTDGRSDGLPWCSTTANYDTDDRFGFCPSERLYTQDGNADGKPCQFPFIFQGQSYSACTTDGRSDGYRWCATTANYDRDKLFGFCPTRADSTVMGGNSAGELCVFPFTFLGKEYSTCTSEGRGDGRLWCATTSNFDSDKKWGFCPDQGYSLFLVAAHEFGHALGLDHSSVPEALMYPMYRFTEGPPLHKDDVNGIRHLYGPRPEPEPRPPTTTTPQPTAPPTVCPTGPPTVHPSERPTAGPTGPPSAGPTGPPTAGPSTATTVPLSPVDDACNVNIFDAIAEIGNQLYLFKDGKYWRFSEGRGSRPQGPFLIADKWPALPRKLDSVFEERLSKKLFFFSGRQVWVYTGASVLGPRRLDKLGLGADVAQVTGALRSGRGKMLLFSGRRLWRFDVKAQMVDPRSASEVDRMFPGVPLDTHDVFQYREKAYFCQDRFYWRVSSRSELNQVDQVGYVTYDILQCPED

| Compound | pIC50 MMP-1 (MMP-1; pIC50 = -log(IC50), molar, enzyme activated with phenyl mercuric acetate, substrate M-2055, excitation/emission 350/450) | pIC50 MMP-2 (MMP-2; [1]) | pIC50 MMP-9 (MMP-9; [1]) | IC50 (MMP-1) [nM] | IC50 (MMP-2) [nM] | IC50 (MMP-9) [nM] |
| --- | --- | --- | --- | --- | --- | --- |
| O=C(CN1CCCCCP1(=O)c1ccc(Oc2ccccc2)cc1)NO (racemic) [Example 5, (±)-N-hydroxy-2-oxo-2-(4-phenoxyphenyl)-azaphosphorepane-1-acetamide] | 5.2 | 8.3 | 8.5 | – | – | – |
| O=C(CN1CC=CCP1(=O)c1ccc(Oc2ccccc2)cc1)NO (racemic) [Example 1, (±)-N-hydroxy-2-oxo-2-(4-phenoxyphenyl)-azaphosphorin-4-ene-1-acetamide] | – | – | – | 2510 | 5.01 | 1 |
| O=C(CN1CC=CCCP1(=O)c1ccc(Oc2ccccc2)cc1)NO (racemic) [Example 4, (±)-N-hydroxy-2-oxo-2-(4-phenoxyphenyl)-azaphosphorep-5-ene-1-acetamide] | – | – | – | 7940 | 7.94 | 6.31 |
| O=C(CN1CC=CCP1(=O)c1ccc(Oc2ccc(Cl)cc2)cc1)NO (racemic) [Example 6, (±)-N-hydroxy-2-(4-(4-chlorophenoxy)-phenyl-2-oxo-azaphosphorin-4-ene-1-acetamide] | – | – | – | 5010 | 3.98 | 0.794 |
